{"source": "patent US10449245B2", "about": "(priority 2014, dated 2019)", "key": {"[1]": {"system": "Histone H3 acetylation in lymphocytes", "assay": "Lymphocyte histone H3 acetylation by flow cytometry, REDUC clinical trial Part A", "type": "in vivo, human", "design": "key to Histone Acetylation, Mean: MFI, background (isotype control) MFI subtracted", "details": "for Histone Acetylation (anti-acetyl histone H3 MFI in lymphocytes): individual subjects 1101, 1102, 1103, 1105, 1106, 1107 = c1-c6; for Histone Acetylation (anti-acetyl histone H3 MFI in lymphocytes) / Histone Acetylation, Mean: romidepsin 5 mg/m^2 i.v. days 0, 7, 14; for Histone Acetylation, Mean: mean of subjects", "experimental": "(§1) Part A of the clinical study contained three phases. First, a pre-treatment phase of 2-4 weeks (visit 1-visit 2a) to confirm the stability of the latent HIV-1 reservoir and determine baseline HIV-1 T lymphocyte specific immunity. Second, a viral reactivation phase of 3 weeks (visit 2 to visit 7) consisting of one cycle of romidepsin infusions at a dosing of 5 mg/m^2 administered intravenously over a 4 hour period. De-escalation down to 2.5 mg/m^2 was planned in case of dose-limiting toxicity was observed. Romidepsin was infused on days 0, 7, and 14. Third, a post-activation phase of ˜9 weeks (visit 8 to visit 11) to assess the effect of romidepsin on the size of latent HIV-1I reservoir.\nHistone H3 acetylation was measured in lymphocytes using flow cytometry with intracellular cytokine staining on fresh isolated PBMCs. Freshly isolated PBMC's were fixated, permeabilised and stained with acetylation-specific antibodies, providing the possibility to evaluate epigenetic modifications on Histones (Rigby L, Muscat A, Ashley D, Algar E. Epigenetics 2012; 7(8):875-882). Briefly, PBMCs (1×10^6) were resuspended in 3 ml ice-cold PBS/1% FBS and centrifuged, then vortexed to dissolve pellet and fixative added, 100 μl 2% PFA (ice-cold), vortexed briefly and incubated on ice for 15 min. Cells were then washed in 4 ml PBS, resuspend in 200 μl PBS and stored at 4° C. until staining. Samples were washed with 3 ml FACS buffer and vortexed to dissolve cell pellet prior to adding 100 μl 0.2% Triton X-100, vortex briefly and incubate for 10 min. at room temperature (RT). Samples were then washed with FACS buffer, 600 μl Block (PBS/10% FBS) was added, sample vortexed to resuspend cell pellet and incubate for 20 min at RT. After washing with 3 ml FACS buffer 5 μl primary antibody Anti-acetyl histone H3 (rabbit) at 200 μg/ml (Merck Millipore) or isotype control at 200 μg/ml (normal rabbit serum, LifeTechnologie) was added, and samples vortexed to resuspend cell pellet, and incubated for 1 hour at RT. Following this samples […]), vortexed to resuspend cell pellet and incubated for 1 hour in the dark (RT). Finall samples were washed with FACS buffer and resuspended in 80 μl PBS and analyzed by FACS (50 000 events, anti-acetyl histone H3 Median Fluorescence Intensity, MFI, calculated by subtracting background MFI from isotype control)."}, "HIV-1": {"system": "HIV-1", "assay": "Plasma HIV RNA quantitative viral load (Cobas TaqMan HIV-1 Test v2.0), REDUC Part A", "type": "in vivo, human", "details": "for HIV VL: individual subjects 1101, 1102, 1103, 1105, 1106, 1107 = c1-c6, romidepsin 5 mg/m^2 i.v. days 0, 7, 14", "experimental": "Part A of the clinical study contained three phases. […] Second, a viral reactivation phase of 3 weeks (visit 2 to visit 7) consisting of one cycle of romidepsin infusions at a dosing of 5 mg/m^2 administered intravenously over a 4 hour period. De-escalation down to 2.5 mg/m^2 was planned in case of dose-limiting toxicity was observed. Romidepsin was infused on days 0, 7, and 14. Third, a post-activation phase of ˜9 weeks (visit 8 to visit 11) to assess the effect of romidepsin on the size of latent HIV-1I reservoir.\nPlasma HIV RNA, quantitative viral load, was measured by Cobas® TaqMan® HIV-1 Test, v2.0 (Roche) according the manufacturer's instruction (routine clinical assay). The lower limit of quantification for this assay is 20 copies HIV-1 RNA/mL, but it provides a qualitative assessment below this."}, "[2]": {"details": "human, in vivo", "experimental": "as §1\nThe primary objective of this part of the study was to evaluate the safety and tolerability of romidepsin at a reduced dosing of 5 mg/m^2 in HIV-infected patients.\nThe primary endpoint of this part was safety and tolerability; evaluation as measured by adverse events (AE), adverse reactions (AR), serious adverse events (SAE), serious adverse reactions (SAR), serious unexpected adverse reactions (SUSAR)."}, "[3]": {"system": "latently infected cell lines and primary T cells", "details": "cited from earlier work"}, "[4]": {"details": "visit 2A (day 0, pre-treatment)"}}, "note": "Values joined by “and” are separate entries in the source; they are usually repeats but may differ in a detail not shown here. Equal entries are not always repeated."}
{"smiles": "C/C=C1\\NC(=O)[C@H]2CSSCC/C=C/[C@H](CC(=O)N[C@H](C(C)C)C(=O)N2)OC(=O)[C@H](C(C)C)NC1=O", "note": "[romidepsin, (1S,4S,7Z,10S,16E,21R)-7-ethylidene-4,21-bis(1-methylethyl)-2-oxa-12,13-dithia-5,8,20,23-tetraazabicyclo[8.7.6]tricos-16-ene-3,6,9,19,22-pentone]", "values": [{"measurement": "Lymphocyte histone H3 acetylation, maximum fold range relative to baseline", "setting": "[1]; following each romidepsin administration, 5 mg/m^2", "result": "3.7-7.7 fold"}, {"measurement": "Histone Acetylation (anti-acetyl histone H3 MFI in lymphocytes)", "setting": "[1]; [4]", "result": "1181 and 1258 and 562 and 1020 and 309 and 372"}, {"measurement": "Histone Acetylation, Mean", "setting": "[1]; [4]", "result": 783.6667}, {"measurement": "Histone Acetylation (anti-acetyl histone H3 MFI in lymphocytes)", "setting": "[1]; visit 2B (day 0 + 4 h)", "result": "3493 and 1534 and 3481 and 2473 and 2360 and 2463"}, {"measurement": "Histone Acetylation, Mean", "setting": "[1]; visit 2B (day 0 + 4 h)", "result": 2634}, {"measurement": "Histone Acetylation (anti-acetyl histone H3 MFI in lymphocytes)", "setting": "[1]; visit 3 (day 1)", "result": "3465 and 2197 and 2451 and 2216 and 2475 and 1757"}, {"measurement": "Histone Acetylation, Mean", "setting": "[1]; visit 3 (day 1)", "result": 2426.833}, {"measurement": "Histone Acetylation (anti-acetyl histone H3 MFI in lymphocytes)", "setting": "[1]; visit 4 (day 3)", "result": "3102 and 2964 and 3201 and 4130 and 3302 and 2767"}, {"measurement": "Histone Acetylation, Mean", "setting": "[1]; visit 4 (day 3)", "result": 3244.333}, {"measurement": "Histone Acetylation (anti-acetyl histone H3 MFI in lymphocytes)", "setting": "[1]; visit 5A (day 7)", "result": "2065 and 2740 and 1284 and 2042 and 2863 and 596"}, {"measurement": "Histone Acetylation, Mean", "setting": "[1]; visit 5A (day 7)", "result": 1931.667}, {"measurement": "Histone Acetylation (anti-acetyl histone H3 MFI in lymphocytes)", "setting": "[1]; visit 5B (day 7 + 4 h)", "result": "5363 and 4597 and 4059 and 3198 and 4239 and 2214"}, {"measurement": "Histone Acetylation, Mean", "setting": "[1]; visit 5B (day 7 + 4 h)", "result": 3945}, {"measurement": "Histone Acetylation (anti-acetyl histone H3 MFI in lymphocytes)", "setting": "[1]; visit 6 (day 10)", "result": "2788 and 4124 and 3402 and 3859 and 3748 and 3280"}, {"measurement": "Histone Acetylation, Mean", "setting": "[1]; visit 6 (day 10)", "result": 3533.5}, {"measurement": "Histone Acetylation (anti-acetyl histone H3 MFI in lymphocytes)", "setting": "[1]; visit 7A (day 14)", "result": "2486 and 3236 and 1789 and 1794 and 1438 and 1211"}, {"measurement": "Histone Acetylation, Mean", "setting": "[1]; visit 7A (day 14)", "result": 1992.333}, {"measurement": "Histone Acetylation (anti-acetyl histone H3 MFI in lymphocytes)", "setting": "[1]; visit 7B (day 14 + 4 h)", "result": "7228 and 3580 and 3317 and 4101 and 5467 and 3444"}, {"measurement": "Histone Acetylation, Mean", "setting": "[1]; visit 7B (day 14 + 4 h)", "result": 4522.833}, {"measurement": "Histone Acetylation (anti-acetyl histone H3 MFI in lymphocytes)", "setting": "[1]; visit 8 (day 17)", "result": "3875 and 4502 and 3147 and 3675 and 3572"}, {"measurement": "Histone Acetylation, Mean", "setting": "[1]; visit 8 (day 17)", "result": 3754.2}, {"measurement": "Histone Acetylation (anti-acetyl histone H3 MFI in lymphocytes)", "setting": "[1]; visit 9 (day 21)", "result": "741 and 2416 and 1607 and 1923 and 1179 and 2467"}, {"measurement": "Histone Acetylation, Mean", "setting": "[1]; visit 9 (day 21)", "result": 1722.167}, {"measurement": "Histone Acetylation (anti-acetyl histone H3 MFI in lymphocytes)", "setting": "[1]; visit 10 (day 56)", "result": "1733 and 3579 and 2622 and 3035 and 1592 and 1865"}, {"measurement": "Histone Acetylation, Mean", "setting": "[1]; visit 10 (day 56)", "result": 2404.333}, {"measurement": "Histone Acetylation (anti-acetyl histone H3 MFI in lymphocytes)", "setting": "[1]; visit 11 (day 84)", "result": "1243 and 1823 and 1292 and 1287 and 1059 and 970"}, {"measurement": "Histone Acetylation, Mean", "setting": "[1]; visit 11 (day 84)", "result": 1279}, {"measurement": "extracellular HIV RNA, change", "setting": "HIV-1; as a result of romidepsin infusion", "result": "significantly increased"}, {"measurement": "plasma HIV-1 RNA", "setting": "HIV-1; at baseline", "result": "< 20", "unit": "copies/mL"}, {"measurement": "patients with plasma HIV-1 RNA increased to readily quantifiable levels", "setting": "HIV-1; at multiple post-infusion time-points", "result": "5 of 6"}, {"measurement": "plasma HIV-1 RNA", "setting": "HIV-1; range following the second infusion, standard clinical assay", "result": "46-103 copies/mL"}, {"measurement": "HIV VL", "setting": "HIV-1; visit 1 (day −21, pre-treatment)", "result": "LOQ (LOQ = “detectable” not quantifiable HIV RNA<20 c/mL) (3×) and 40 HIV RNA copies/mL plasma and LOD (2×)"}, {"measurement": "HIV VL", "setting": "HIV-1; [4]", "result": "LOD"}, {"measurement": "HIV VL", "setting": "HIV-1; visit 2B (day 0 + 4 h)", "result": "LOQ (LOQ = “detectable” not quantifiable HIV RNA<20 c/mL) and LOD (5×)"}, {"measurement": "HIV VL", "setting": "HIV-1; visit 3 (day 1)", "result": "26 HIV RNA copies/mL plasma and LOD (2×) and LOQ (LOQ = “detectable” not quantifiable HIV RNA<20 c/mL) (2×) and 27 HIV RNA copies/mL plasma"}, {"measurement": "HIV VL", "setting": "HIV-1; visit 4 (day 3)", "result": "LOQ (LOQ = “detectable” not quantifiable HIV RNA<20 c/mL) and 32 HIV RNA copies/mL plasma and LOD (4×)"}, {"measurement": "HIV VL", "setting": "HIV-1; visit 5A (day 7)", "result": "LOQ (LOQ = “detectable” not quantifiable HIV RNA<20 c/mL) and LOD (5×)"}, {"measurement": "HIV VL", "setting": "HIV-1; visit 5B (day 7 + 4 h)", "result": "21 HIV RNA copies/mL plasma and LOD (3×) and 54 HIV RNA copies/mL plasma and LOQ (LOQ = “detectable” not quantifiable HIV RNA<20 c/mL)"}, {"measurement": "HIV VL", "setting": "HIV-1; visit 6 (day 10)", "result": "59 HIV RNA copies/mL plasma and 74 HIV RNA copies/mL plasma and LOQ (LOQ = “detectable” not quantifiable HIV RNA<20 c/mL) and LOD and 46 HIV RNA copies/mL plasma and 103 HIV RNA copies/mL plasma"}, {"measurement": "HIV VL", "setting": "HIV-1; visit 7A (day 14)", "result": "LOD (5×) and LOQ (LOQ = “detectable” not quantifiable HIV RNA<20 c/mL)"}, {"measurement": "HIV VL", "setting": "HIV-1; visit 7B (day 14 + 4 h)", "result": "LOQ (LOQ = “detectable” not quantifiable HIV RNA<20 c/mL) and LOD (5×)"}, {"measurement": "HIV VL", "setting": "HIV-1; visit 9 (day 21)", "result": "LOQ (LOQ = “detectable” not quantifiable HIV RNA<20 c/mL) (3×) and LOD (3×)"}, {"measurement": "HIV VL", "setting": "HIV-1; visit 10 (day 56)", "result": "LOD (3×) and 42 HIV RNA copies/mL plasma and LOQ (LOQ = “detectable” not quantifiable HIV RNA<20 c/mL) (2×)"}, {"measurement": "HIV VL", "setting": "HIV-1; visit 11 (day 84)", "result": "LOQ (LOQ = “detectable” not quantifiable HIV RNA<20 c/mL) and LOD (4×) and 68 HIV RNA copies/mL plasma"}, {"measurement": "HIV VL", "setting": "HIV-1; visit V8 (day 17)", "result": "22 HIV RNA copies/mL plasma and LOD (2×) and LOQ (LOQ = “detectable” not quantifiable HIV RNA<20 c/mL) and 119 HIV RNA copies/mL plasma"}, {"measurement": "grade II AEs", "setting": "[2]", "result": "Two"}, {"measurement": "activation of HIV-1 expression", "setting": "[3]", "result": "potently activates HIV-1 expression"}]}
